Several values for one entry are separate records, joined by “and”; a condition that tells them apart may be missing. Equal values may be shown once.
Key:
[1] = system: E2F1 transcriptional activity; assay: E2F1 activity reporter assay (p14Arf promoter dual luciferase) in HEK293 cells; format: cell-based, human
Experimental: E2F1 activity reporter assay using a p14^ARF promoter-luciferase plasmid was performed as described (Liu et al. 2003). p53 activity reporter assay was performed by a p21^Cip promoter-luciferase plasmid (Liu et al. 2009). p73 activity reporter assay was performed using a pGL3-Bax promoter-luciferase plasmid (Liu et al. 2011). pRL-TK (Renilla luciferase, Promega) was used in all experiments for controlling transfection efficiency. The firefly and Renilla luciferase activities were measured by Dual-Luciferase Reporter System (Promega), and the firefly luciferase activities were normalized against the Renilla activity. All assays were performed in triplicate.

NCI-H522 = conditions: NCI-DTP database; cited from earlier work
HEK293 cells = assay: Caspase-Glo 3/7 activity assay, HEK293; format: cell-based, human; conditions: 2.5 μM overnight
Experimental: (§1) The apoptosis was measured by Caspase-Glo® 3/7 assay (Promega) following the manufacturer's protocol. The cells were plated in 6-well tissue culture dish (10^4 cells/well) (BD Falcon) in respective media. […] The blank reactions were prepared per direction. Equal volume of Caspase-Glo® 3/7 reagents were applied to each well. A luminometer (Sirius) was used to quantitate luminescence.
To prepare TopBP1 knockdown stable cell line, MDA-MB468 cells were infected with lentivirus expressing TopBP1 shRNA (Liu et al. 2011) as well as scramble shRNA, separately. The infected cells were grown for 48 h followed by selection with puromycin (2 μg/ml). After selection, the knockdown was confirmed by Western blotting before further experiments. Two different pLKO-shTopBP1 (#1 and #2) constructs (Open Biosystems, RHS4533-NM_007027) were used to deplete TopBP1 in MDA-MB468 cells. Additional two pSuper-shTopBP1 constructs (Liu et al. 2004) were used to knock down TopBP1 in HEK293 cells. Two pSuper-shE2F1 constructs were used to deplete E2F1: shE2F1#1 (described previously (Liu et al. 2004)), and shE2F1#2 (target sequence 5′-[…]-3′). The target sequence for pSuperior-shE2F1 is the same as pSuper-shE2F1#1. To deplete p63, shp63alpha pLKO.1-puro (from Addgene, 19120) was used. TP73 MISSION shRNA (shp73 pLKO.1-puro) was purchased from Sigma (TRCN00002722587).

BT549 xenografts = assay: BT549 xenograft formation; format: in vivo, nude mice
Experimental: Twenty nude mice were injected s.c. with BT549 cells. […] Six out of eight DMSO-treated mice developed xenografts later.

[2] = molecular target: T1, TopBP1/mutp53 (R249S) interaction (Homo sapiens, UniProt Q92547); assay: Co-immunoprecipitation in BT549 cells, TopBP1/mutp53; format: cell-based; conditions: 2.5 μM
T1 construct: endogenous in cells; host or cells: BT549
T1 sequence (Q92547 whole entry, stated change not applied): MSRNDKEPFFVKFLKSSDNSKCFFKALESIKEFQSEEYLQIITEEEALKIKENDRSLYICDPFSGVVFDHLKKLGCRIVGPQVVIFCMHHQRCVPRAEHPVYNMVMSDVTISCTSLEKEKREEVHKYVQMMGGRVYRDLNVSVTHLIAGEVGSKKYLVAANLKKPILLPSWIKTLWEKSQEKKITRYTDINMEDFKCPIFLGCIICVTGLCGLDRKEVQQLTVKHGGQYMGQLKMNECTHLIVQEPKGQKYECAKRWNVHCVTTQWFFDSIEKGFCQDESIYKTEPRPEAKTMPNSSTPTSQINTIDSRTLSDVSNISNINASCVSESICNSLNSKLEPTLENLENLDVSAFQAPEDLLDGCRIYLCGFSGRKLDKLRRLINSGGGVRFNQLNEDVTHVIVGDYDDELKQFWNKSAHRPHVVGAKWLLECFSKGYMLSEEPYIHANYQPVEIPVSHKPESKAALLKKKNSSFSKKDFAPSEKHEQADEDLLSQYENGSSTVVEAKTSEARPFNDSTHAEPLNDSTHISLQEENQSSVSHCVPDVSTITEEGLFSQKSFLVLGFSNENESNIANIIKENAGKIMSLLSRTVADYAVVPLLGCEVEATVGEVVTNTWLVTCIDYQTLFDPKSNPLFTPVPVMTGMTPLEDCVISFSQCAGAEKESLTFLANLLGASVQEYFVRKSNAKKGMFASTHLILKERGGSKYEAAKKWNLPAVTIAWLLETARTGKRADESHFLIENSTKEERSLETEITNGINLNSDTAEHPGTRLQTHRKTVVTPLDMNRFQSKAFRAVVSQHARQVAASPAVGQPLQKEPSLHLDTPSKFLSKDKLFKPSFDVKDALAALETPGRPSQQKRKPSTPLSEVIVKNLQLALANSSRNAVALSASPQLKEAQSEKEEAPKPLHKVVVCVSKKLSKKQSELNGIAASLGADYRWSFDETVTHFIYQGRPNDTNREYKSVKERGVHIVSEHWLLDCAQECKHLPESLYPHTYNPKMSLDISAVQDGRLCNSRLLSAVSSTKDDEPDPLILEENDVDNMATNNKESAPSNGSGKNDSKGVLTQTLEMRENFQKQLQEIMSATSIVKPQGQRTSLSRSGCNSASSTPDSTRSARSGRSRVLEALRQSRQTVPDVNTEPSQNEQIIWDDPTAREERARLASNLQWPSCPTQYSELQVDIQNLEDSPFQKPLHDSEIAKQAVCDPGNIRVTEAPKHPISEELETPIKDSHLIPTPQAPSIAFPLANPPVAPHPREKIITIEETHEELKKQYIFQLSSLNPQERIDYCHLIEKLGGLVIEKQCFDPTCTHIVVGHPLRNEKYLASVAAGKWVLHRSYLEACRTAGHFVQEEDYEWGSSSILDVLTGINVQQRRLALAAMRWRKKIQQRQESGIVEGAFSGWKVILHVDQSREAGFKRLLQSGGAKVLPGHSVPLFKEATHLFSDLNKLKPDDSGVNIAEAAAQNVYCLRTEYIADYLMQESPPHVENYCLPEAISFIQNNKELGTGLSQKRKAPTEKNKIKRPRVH

MDA-MB468 xenografts = assay: MDA-MB468 xenograft model; format: in vivo, nude mice
Experimental: Female nu/nu mice (4-5 weeks old) were purchased from Charles River Laboratories (Cambridge, Mass.). The animals were cared for and maintained by the Animal Care and Use Committee of Baylor College of Medicine. Freshly grown MDA-MB468 breast cancer cells [(8×10^6) cells per site in 100 μl phosphate-buffered saline (PBS)] were injected subcutaneously into the right side of the flank of the 5-6 weeks old mice. When tumors were measurable, the mice were randomly divided into treatment and control groups. […] The control group mice were injected with vehicle (DMSO) in the same way. The mice were monitored thrice per week. The weight of the mice and tumor size were measured on the indicated day with a caliper and calculated based on the formula π/6 (length×depth×width). The evaluator was blinded to the group allocation during monitoring. Animals were sacrificed in the indicated dates, and tumors were harvested, weighed, and further processed for histopathological analysis. All experiments were performed under a Baylor College of Medicine Institutional Animal Care and Use Committee (IACUC)-approved protocol and all experiments confirm to IACUC standards and ethical regulations.
Next day the samples were sent to The Pathology and Histology Core of Baylor College of Medicine for further processing. The paraffin-embedded sections were stained with H&E, Ki-67, TUNEL and anti-cleaved caspase-3 using standard operating protocols.

Hs-578T = conditions: NCI-DTP database; cited from earlier work
Jurkat-T cells = assay: Caspase 3/7 activation assay, Jurkat-T; format: cell-based; conditions: 2.5 μM, 7 hours
Experimental: as §1

[3] = system: McA-RH7777 rat hepatoma cells; assay: Apoptosis in rat tumor cells; format: cell-based
Experimental: as §1

BT549 = conditions: NCI-DTP database; cited from earlier work
[4] = system: mutp53(R249S)/p73 interaction; assay: Anti-p73 immunoprecipitation in BT549 cells; format: cell-based, human; conditions: 2.5 μM, 5 h
Experimental: MDA-MB468 cells were lysed with TNN buffer (Liu et al. 2003). An aliquot of cell lysates was lysed with SDS lysis buffer and the rest of cell lysates were incubated with appropriate antibodies or beads at 4° C. for 3-12 h. Anti-FLAG beads (Sigma) were washed three times with TNN buffer. Immunoprecipitates were fractionated by SDS-PAGE and electro-transferred to Immobilon-P membrane (Millipore). Equal amount of protein loading was validated with Ponceau-S staining. The specific signals were detected by incubating with appropriate antibody. All primary antibodies were used at 1:1000 dilution and horseradish peroxidase (HRP)-conjugated secondary antibodies were used at 1:5000 dilution for immunoblotting. E2F1 (C-20 and KH-95), p53 (FL393), p63 (4A4 and H-129), p73 (H-79), p21 (C-19), Bax (N-20), GST (B-14), c-Myc (A14), Miz1 (H-190), Chk1 (G4), Actin (C-2) and GAPDH (6C5) antibodies were purchased from Santa Cruz. TopBP1 (mouse monoclonal) and Aid antibodies were purchased from BD Transduction Laboratories. TopBP1 (BL893, Rabbit polyclonal) antibody was purchased from Bethyl. Mouse monoclonal anti-phospho-γH2AX was purchased from Millipore. Phospho-Chk1 (Ser345) antibody was purchased from Cell signaling. FLAG (F7425) antibody was purchased from Sigma. Mouse monoclonal anti-p73 (IMG-246) was purchased from IMGENEX.

[5] = 40 mg/kg i.p. every three days for three doses

For `CC(=O)OCOC(=O)CN(CC(=O)OCOC(C)=O)Cc1cc2c(cc1OC(C)=O)Oc1cc(OC(C)=O)c(CN(CC(=O)OCOC(C)=O)CC(=O)OCOC(C)=O)cc1C21OC(=O)c2ccccc21` [Calcein AM, Calcein AM (acetoxymethyl ester)], the E2F1 transcriptional activity [1] is given as “enhanced”, the GI50 (NCI-H522) is given as less than 1000 nM and the “apoptosis (caspase 3/7 activity)” value (HEK293 cells) is given as “induced apoptosis”. The “apoptosis (caspase 3/7 activity)” value (HEK293 cells; TopBP1-depleted HEK293 cells) was “could not induce more apoptosis”, the “mice that developed tumors” value (BT549 xenografts; 20 mg/kg i.p. every three days for three doses) was “none of the eight” and the “mice that developed tumors” value (BT549 xenografts; [5]) was “none of the four”. For the same compound, the “interaction between TopBP1 and mutp53” value [2] was “inhibited”, the “body weights of mice” value (MDA-MB468 xenografts; [5]) was “without affecting body weights” and the “expression of proliferation marker Ki-67 in xenografts” value (MDA-MB468 xenografts; [5]) was “significantly inhibited”. The xenograft growth (MDA-MB468 xenografts; [5]) was “significantly inhibited xenograft growth”, the “immunohistochemistry of xenografts (Ki-67, TUNEL, cleaved caspase 3)” value (MDA-MB468 xenografts; one week after the second injection) was “inhibition of proliferation and induction of apoptosis” and the “tumor response to second round of treatment” value (MDA-MB468 xenografts; regrown tumors, second round from day 61) was “responded to Calcein AM injection again”. The GI50 (Hs-578T) was less than 400 nM, the “cell killing (caspase 3/7 activation)” value (Jurkat-T cells) was “active in killing” and the apoptosis [3] was “induced apoptosis”. The GI50 (BT549) was < 400 nM and 270 nM and the “binding of p73 to mutp53(R249S)” value [4] was “release of p73 from mutp53(R249S)”.

Source: US9636323B2, “Method of treating cancer that overexpresses TopBP1” (Baylor College of Medicine, priority 2014, dated 2017)
